This is an account of results in ChEMBL document CHEMBL1201862, “PubChem BioAssay data set” (2004).

The source made the active and inactive calls.

One assay has as its target Tumor necrosis factor (Homo sapiens, UniProt P01375). As to the kind of experiment: analog potency on TNFa NF-kB signaling – cell-based, revised, SAR follow-up (AID 2337). It is filed as functional.
In assay [1] the target is T1, Nucleotide-binding oligomerization domain-containing protein 1 (Homo sapiens, UniProt Q9Y239).
T1 sequence (Q9Y239 whole entry): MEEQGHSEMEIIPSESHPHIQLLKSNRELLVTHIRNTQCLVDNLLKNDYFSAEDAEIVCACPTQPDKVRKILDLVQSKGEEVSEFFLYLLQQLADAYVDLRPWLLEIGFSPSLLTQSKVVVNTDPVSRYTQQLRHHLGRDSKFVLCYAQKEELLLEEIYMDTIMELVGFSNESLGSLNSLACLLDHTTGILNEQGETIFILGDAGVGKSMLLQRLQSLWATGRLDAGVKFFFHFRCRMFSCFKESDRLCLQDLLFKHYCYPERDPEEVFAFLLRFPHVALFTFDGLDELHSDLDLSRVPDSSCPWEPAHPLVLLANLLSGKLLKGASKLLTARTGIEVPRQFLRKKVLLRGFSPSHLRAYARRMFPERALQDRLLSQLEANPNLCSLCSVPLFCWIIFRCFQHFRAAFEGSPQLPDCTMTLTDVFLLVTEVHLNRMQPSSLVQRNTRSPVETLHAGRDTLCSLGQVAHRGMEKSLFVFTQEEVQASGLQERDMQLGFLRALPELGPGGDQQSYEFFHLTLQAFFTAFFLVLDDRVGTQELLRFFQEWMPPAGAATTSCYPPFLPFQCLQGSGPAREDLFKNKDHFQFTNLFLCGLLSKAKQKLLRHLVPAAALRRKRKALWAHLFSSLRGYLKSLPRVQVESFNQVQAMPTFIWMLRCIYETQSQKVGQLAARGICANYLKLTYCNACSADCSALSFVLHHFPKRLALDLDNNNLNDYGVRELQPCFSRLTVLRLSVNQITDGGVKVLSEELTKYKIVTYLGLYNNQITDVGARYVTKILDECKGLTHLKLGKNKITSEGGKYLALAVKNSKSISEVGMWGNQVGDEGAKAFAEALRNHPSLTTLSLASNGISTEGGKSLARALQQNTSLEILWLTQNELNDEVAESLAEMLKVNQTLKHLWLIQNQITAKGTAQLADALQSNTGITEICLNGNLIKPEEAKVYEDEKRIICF
Kind of assay: blockers of NOD1 pathway activity – revised, SAR follow-up (AID 2333). The assay is classed as functional.

The next assay has as its system HEK293. As to the kind of experiment: cells. Conditions: Homo sapiens.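 Further: cells exposed to compound for 14 hours overnight before viability readout.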
Assay [2] can be described thus: restored growth of temperature-sensitive Burl-1 yeast – whole organism, S. cerevisiae, Burl-1 ts mutant, luminescence, counter-screen for SUMOylation pathway inhibitor project, dose response (AID 463199). The assay is classed as functional. (In general: A counterscreen serves to expose hits that act by an unwanted route or on another target.)
In assay [3] the target is Intestinal-type alkaline phosphatase (Mus musculus, UniProt P24822). As to the kind of experiment: PubChem AID 488785. The assay is classed as functional.
The target of assay [4] is T2, Alkaline phosphatase, tissue-nonspecific isozyme (Homo sapiens, UniProt P05186).
T2 sequence (P05186 whole entry): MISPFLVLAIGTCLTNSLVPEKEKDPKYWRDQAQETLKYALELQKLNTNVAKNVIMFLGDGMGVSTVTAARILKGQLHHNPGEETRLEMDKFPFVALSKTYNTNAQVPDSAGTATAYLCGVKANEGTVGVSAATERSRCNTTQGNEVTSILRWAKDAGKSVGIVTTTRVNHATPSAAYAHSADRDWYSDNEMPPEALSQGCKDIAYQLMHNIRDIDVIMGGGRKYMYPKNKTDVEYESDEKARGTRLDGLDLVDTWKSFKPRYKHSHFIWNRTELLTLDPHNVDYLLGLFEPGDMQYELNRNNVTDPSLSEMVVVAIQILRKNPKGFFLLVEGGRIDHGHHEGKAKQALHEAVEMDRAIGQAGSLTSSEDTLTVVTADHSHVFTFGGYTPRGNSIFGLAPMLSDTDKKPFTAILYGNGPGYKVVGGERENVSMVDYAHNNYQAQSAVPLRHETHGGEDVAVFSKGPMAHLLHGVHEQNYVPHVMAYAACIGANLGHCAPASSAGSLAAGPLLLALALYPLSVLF
Kind of assay: TNAP enzyme inhibition by screening hits, dose response, selectivity assay for mouse IAP inhibitor project, biochemical, human TNAP, uHTS hits (AID 488906). The assay is classed as functional.

Assay [5] addresses Intestinal-type alkaline phosphatase (Homo sapiens, UniProt P09923). Kind of assay: inhibition of human intestinal alkaline phosphatase – biochemical, dose response (AID 488876). It is filed as functional.
For assay [6], the target named is T3, Dual specificity protein phosphatase 3 (Homo sapiens, UniProt P51452). Kind of assay: VHR1 phosphatase inhibitors, primary screen, biochemical, absorbance, uHTS (AID 1654).
Assay [7] has as its target T4, Voltage-gated N-type calcium channel alpha-1B subunit/Amyloid beta A4 precursor protein-binding family A member 1 (Homo sapiens, UniProt Q00975+Q02410). It is filed as protein assay.
The target of assay [8] is E3 ubiquitin-protein ligase XIAP (Homo sapiens, UniProt P98170). Kind of assay: Counter Screen using XIAP-Bir3 for Chemical Antagonists of Bir1/2 domains of IAP-family anti-apoptotic proteins. [Related pubchem assays (depositor defined):AID1018, AID1449, AID1514, AID1638, AID1749, AID1750, AID488957, AID488963].
The target of assay [9] is T4, Voltage-gated N-type calcium channel alpha-1B subunit/Amyloid beta A4 precursor protein-binding family A member 1. It is filed as protein assay. The source holds these as a separate data set.
In assay [10] the target is T3, Dual specificity protein phosphatase 3. Kind of assay: VHR1 phosphatase inhibitors, biochemical (AID 1878).
Assay [11] addresses T5, Dual specificity protein phosphatase 6 (Rattus norvegicus, UniProt Q64346).
T5 sequence (Q64346 whole entry): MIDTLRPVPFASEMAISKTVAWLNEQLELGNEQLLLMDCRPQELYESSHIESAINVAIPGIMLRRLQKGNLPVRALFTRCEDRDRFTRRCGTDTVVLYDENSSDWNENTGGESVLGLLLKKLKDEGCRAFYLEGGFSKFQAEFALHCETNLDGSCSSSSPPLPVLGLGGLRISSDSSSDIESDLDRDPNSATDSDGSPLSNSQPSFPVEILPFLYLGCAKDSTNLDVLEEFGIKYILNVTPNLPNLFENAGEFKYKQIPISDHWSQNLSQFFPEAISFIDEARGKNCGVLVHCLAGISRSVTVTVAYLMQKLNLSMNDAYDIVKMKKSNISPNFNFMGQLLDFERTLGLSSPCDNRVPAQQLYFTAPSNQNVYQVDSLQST
As to the kind of experiment: inhibition of rat DUSP6 enzyme activity – biochemical, in vitro, primary screen (AID 425).

The target of another assay is CAAX prenyl protease 2 (Saccharomyces cerevisiae S288c, UniProt Q03530). The assay is classed as biochemical.
A further assay deals with CAAX prenyl protease 1 (Saccharomyces cerevisiae S288c, UniProt P47154). As to the kind of experiment: yeast CAAX protease Ste24 inhibition – biochemical, S. cerevisiae, plate reader, cherry-pick, dose response (AID 488815).
The target of assay [12] is Potassium voltage-gated channel subfamily KQT member 2 (Rattus norvegicus, UniProt O88943). As to the kind of experiment: rat KCNQ2 current potentiators – automated patch clamp, KCNQ2-CHO cells, SAR follow-up (AID 493113). The assay is classed as functional.
In assay [13] the target is T6, Delta-type opioid receptor (Homo sapiens, UniProt P41143). Kind of assay: HTS Image-Based Screen for Antagonists of the DOR Receptor. [Related pubchem assays (depositor defined):AID1777, AID1785, AID1786, AID2133]. It is filed as functional.
The target in assay [14] is T7, Mu-type opioid receptor (Homo sapiens, UniProt P35372). Kind of assay: HTS Image-Based Screen for Agonists of the MOR Receptor. [Related pubchem assays (depositor defined):AID1777, AID1785, AID1786, AID2133]. The assay is classed as functional.
Assay [15] deals with T6, Delta-type opioid receptor. Kind of assay: HTS Image-Based Screen for Agonists of the DOR Receptor. [Related pubchem assays (depositor defined):AID1777, AID1786, AID2133]. It is filed as functional.
Assay [16] deals with T8, Kappa-type opioid receptor (Homo sapiens, UniProt P41145). The assay is classed as functional.
The target in assay [17] is T8, Kappa-type opioid receptor. It is filed as functional. This is another data set of the same source.
The target in assay [18] is Voltage-dependent T-type calcium channel subunit alpha-1H (Homo sapiens, UniProt O95180). It is filed as functional.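 Further: channel activity triggered by adding a high calcium stimulation buffer.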
Assay [19] concerns the target T8, Kappa-type opioid receptor. As to the kind of experiment: SAR analysis of small molecule agonists of the kappa opioid receptor via a luminescent beta-arrestin assay. [Related pubchem assays (depositor defined):AID1777, AID1786, AID1966, AID2133, AID2136, AID2348, AID2352, AID2357, AID2359, AID2370, AID2420, AID2478, AID2491, AID2492, AID2493, AID2497, AID2498, AID2500, AID449737, AID488822, AID488842]. It is filed as functional.

Assay [20] has as its target T7, Mu-type opioid receptor. Kind of assay: mu opioid receptor activators, image-based, SAR follow-up (AID 2352). It is filed as functional.
The target of assay [21] is T6, Delta-type opioid receptor. Kind of assay: DOR agonists, SAR follow-up, image-based (AID 2370). The assay is classed as functional.
For assay [22], the target named is T8, Kappa-type opioid receptor. Kind of assay: kappa opioid receptor blockers, image-based, SAR follow-up (AID 2348). It is filed as functional.
Assay [23] concerns the target T7, Mu-type opioid receptor. As to the kind of experiment: mu opioid receptor blockers – image-based, SAR follow-up (AID 2420).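 Further: compounds added before stimulation of receptor with agonist DAMGO.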 The assay is classed as functional.
The target of assay [24] is T8, Kappa-type opioid receptor. Kind of assay: kappa opioid receptor activation potency – imaging, image-based, SAR follow-up (AID 2359). The assay is classed as functional.
For assay [25], the target named is T6, Delta-type opioid receptor. As to the kind of experiment: delta opioid receptor blockers – image-based, SAR follow-up (AID 2357). The assay is classed as functional.
Assay [26] concerns the target T9, Mannose-6-phosphate isomerase (Homo sapiens, UniProt P34949).
T9 sequence (P34949 whole entry): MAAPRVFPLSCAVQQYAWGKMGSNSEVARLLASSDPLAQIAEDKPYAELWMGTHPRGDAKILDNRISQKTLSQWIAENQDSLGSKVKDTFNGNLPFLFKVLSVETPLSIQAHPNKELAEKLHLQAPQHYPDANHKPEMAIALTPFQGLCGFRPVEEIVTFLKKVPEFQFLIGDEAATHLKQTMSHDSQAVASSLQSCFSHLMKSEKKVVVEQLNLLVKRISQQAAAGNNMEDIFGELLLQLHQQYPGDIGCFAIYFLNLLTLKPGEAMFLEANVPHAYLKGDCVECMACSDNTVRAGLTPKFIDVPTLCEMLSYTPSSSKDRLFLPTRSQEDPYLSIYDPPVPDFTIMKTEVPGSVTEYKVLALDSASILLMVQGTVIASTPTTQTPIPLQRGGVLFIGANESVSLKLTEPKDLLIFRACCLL
Kind of assay: phosphomannose isomerase inhibition – biochemical, fluorescence intensity, confirmation (AID 1535).

The next assay has as its target Phosphomannomutase 2 (Homo sapiens, UniProt O15305). Kind of assay: Counter screen SAR assay for PMM2 inhibitors via a fluorescence intensity assay. [Related pubchem assays (depositor defined):AID1545, AID1574].

T8 sequence (P41145 whole entry): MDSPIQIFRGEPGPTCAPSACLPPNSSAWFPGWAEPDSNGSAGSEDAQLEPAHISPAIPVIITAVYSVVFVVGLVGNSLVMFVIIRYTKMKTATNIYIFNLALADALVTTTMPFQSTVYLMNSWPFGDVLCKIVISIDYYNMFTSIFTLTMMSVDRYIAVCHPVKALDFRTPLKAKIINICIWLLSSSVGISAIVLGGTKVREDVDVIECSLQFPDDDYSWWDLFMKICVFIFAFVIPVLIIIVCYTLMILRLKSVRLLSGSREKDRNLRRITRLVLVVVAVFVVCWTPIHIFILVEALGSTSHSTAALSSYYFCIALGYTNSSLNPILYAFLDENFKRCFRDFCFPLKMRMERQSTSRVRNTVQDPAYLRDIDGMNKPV
T7 sequence (P35372 whole entry): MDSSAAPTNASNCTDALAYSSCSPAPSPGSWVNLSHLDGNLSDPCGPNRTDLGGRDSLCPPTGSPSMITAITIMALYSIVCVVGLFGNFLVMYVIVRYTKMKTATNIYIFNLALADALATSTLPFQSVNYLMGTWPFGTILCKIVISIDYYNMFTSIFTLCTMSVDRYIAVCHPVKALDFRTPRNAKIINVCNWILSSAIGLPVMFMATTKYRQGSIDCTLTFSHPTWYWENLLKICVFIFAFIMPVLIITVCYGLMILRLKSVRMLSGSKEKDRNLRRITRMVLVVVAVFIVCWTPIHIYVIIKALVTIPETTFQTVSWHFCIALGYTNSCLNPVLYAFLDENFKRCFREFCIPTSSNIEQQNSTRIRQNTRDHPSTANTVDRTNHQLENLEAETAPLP
T6 sequence (P41143 whole entry): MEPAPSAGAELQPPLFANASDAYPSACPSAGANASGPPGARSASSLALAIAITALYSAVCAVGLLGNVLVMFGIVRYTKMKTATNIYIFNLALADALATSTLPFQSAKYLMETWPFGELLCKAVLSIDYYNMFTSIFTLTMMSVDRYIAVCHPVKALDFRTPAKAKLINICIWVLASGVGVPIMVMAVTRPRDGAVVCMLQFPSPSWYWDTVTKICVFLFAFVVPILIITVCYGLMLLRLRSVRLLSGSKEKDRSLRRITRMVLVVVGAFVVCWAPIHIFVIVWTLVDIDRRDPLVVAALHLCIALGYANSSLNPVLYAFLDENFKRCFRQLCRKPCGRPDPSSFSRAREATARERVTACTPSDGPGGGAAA
T3 sequence (P51452 whole entry): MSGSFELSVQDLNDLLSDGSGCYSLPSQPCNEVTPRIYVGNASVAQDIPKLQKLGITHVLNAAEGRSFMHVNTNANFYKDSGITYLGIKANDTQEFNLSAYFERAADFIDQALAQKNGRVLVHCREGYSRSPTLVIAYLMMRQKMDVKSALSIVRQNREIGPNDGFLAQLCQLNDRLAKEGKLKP
T4 sequence (Q00975 whole entry): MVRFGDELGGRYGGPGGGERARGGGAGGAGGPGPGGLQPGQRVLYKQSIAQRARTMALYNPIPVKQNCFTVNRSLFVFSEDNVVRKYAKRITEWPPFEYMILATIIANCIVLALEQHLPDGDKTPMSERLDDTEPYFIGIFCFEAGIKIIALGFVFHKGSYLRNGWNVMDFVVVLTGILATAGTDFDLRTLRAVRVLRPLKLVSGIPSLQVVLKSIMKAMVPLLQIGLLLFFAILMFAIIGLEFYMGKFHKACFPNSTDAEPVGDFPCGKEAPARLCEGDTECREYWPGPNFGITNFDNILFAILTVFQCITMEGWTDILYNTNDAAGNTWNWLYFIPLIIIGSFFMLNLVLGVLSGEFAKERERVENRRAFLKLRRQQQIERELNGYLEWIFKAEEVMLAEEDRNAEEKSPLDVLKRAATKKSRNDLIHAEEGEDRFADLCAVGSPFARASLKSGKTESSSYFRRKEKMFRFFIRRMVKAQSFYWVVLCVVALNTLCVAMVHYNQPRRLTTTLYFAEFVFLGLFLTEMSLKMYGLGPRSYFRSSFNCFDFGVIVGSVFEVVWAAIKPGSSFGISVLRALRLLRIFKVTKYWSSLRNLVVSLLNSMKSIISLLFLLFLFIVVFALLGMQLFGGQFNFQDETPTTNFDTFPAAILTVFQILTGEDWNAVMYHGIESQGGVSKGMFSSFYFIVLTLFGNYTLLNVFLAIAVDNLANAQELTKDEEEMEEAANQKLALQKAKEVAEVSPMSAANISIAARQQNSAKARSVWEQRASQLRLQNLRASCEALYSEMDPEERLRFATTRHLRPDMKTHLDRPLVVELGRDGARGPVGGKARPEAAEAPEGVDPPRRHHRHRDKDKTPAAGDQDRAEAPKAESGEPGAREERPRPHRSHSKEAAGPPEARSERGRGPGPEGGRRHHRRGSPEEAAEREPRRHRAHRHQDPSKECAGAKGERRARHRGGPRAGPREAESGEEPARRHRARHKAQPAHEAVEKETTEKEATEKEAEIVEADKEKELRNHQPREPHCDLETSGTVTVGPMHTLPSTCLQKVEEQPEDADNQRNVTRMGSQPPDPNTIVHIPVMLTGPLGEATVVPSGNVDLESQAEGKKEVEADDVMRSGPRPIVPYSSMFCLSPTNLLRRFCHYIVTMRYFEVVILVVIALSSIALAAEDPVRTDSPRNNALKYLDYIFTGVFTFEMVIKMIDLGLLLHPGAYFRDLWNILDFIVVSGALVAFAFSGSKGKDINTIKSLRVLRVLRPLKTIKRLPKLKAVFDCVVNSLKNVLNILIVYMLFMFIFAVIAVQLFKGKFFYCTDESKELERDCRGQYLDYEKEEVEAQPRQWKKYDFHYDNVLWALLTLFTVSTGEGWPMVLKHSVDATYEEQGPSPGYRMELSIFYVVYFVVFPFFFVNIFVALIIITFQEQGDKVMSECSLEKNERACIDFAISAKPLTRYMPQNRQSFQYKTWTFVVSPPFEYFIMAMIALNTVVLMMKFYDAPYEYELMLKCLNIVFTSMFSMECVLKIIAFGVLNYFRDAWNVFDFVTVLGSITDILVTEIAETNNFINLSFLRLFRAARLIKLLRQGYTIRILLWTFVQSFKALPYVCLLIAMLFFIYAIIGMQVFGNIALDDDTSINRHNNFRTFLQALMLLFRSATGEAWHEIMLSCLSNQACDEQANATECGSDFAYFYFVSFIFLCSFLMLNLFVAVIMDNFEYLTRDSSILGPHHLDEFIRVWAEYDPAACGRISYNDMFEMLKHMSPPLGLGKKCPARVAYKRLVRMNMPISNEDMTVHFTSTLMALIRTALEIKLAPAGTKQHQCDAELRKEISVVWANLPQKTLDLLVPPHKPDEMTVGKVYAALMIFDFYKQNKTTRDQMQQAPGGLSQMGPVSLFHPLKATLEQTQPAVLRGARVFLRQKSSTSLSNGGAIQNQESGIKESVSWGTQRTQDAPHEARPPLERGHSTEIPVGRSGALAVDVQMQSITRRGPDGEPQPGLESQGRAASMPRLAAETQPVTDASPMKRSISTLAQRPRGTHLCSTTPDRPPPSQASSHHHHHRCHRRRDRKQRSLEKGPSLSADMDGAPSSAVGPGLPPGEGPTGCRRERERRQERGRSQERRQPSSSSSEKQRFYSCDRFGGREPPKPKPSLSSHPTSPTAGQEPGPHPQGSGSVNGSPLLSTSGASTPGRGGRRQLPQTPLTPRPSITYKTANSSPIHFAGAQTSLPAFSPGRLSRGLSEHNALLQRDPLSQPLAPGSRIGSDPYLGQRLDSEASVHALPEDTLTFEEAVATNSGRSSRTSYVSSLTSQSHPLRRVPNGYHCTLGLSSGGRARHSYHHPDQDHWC
T4 sequence (Q02410 whole entry): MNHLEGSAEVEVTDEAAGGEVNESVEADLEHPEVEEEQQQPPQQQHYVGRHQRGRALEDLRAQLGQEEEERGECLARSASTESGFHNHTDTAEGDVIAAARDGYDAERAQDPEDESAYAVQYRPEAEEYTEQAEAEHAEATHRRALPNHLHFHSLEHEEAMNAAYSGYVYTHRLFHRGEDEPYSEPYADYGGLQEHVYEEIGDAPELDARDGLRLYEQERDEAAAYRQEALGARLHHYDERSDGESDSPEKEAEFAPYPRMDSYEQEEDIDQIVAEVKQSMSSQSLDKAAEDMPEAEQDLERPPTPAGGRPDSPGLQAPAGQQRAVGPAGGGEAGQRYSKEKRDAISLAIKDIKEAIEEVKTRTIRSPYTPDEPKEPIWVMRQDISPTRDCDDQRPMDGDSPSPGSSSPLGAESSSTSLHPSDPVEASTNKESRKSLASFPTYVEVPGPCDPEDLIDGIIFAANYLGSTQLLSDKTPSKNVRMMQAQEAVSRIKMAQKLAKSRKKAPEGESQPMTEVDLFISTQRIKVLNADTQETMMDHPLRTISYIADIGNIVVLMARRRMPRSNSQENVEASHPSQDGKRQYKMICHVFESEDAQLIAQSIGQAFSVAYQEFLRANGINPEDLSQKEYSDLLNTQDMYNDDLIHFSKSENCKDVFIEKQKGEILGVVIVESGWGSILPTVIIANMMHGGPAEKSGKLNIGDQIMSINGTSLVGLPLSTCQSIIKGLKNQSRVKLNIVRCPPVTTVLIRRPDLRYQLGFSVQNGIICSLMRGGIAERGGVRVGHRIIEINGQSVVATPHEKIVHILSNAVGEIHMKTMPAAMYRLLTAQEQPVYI
Chain of CAAX prenyl protease 1 (P47154 whole entry): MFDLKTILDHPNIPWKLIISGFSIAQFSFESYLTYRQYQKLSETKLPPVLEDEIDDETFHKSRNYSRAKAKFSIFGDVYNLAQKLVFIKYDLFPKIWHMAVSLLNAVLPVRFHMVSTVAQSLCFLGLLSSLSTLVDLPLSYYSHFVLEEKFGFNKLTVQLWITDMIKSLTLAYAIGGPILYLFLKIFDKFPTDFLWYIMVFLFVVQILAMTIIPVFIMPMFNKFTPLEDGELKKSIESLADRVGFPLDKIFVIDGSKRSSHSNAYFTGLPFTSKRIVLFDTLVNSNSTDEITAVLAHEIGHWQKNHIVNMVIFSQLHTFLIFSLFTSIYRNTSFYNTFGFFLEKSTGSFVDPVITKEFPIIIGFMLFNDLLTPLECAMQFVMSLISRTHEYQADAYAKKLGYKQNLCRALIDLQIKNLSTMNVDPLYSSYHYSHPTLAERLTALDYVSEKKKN

Broadly, the IC50 is the concentration needed to halve the response being measured. On to `Cc1ccc([N+](=O)[O-])cc1NC(=O)c1cc(Cl)c2ccccc2c1O`, for which the results for the IC50 (at Tumor necrosis factor; in assay [1]; in the assay on HEK293) were 0.206 µM (active), 0.17 µM (active) and 1.17 µM (active), respectively.
A word on the AC50: it is the concentration giving half of the maximal activity seen. For the molecule `COc1ccc(Cl)cc1N(C(=O)c1ccco1)C(C(=O)NC1CCCC1)c1ccncc1` (stereo unspecified), the AC50 in [2] is 104 µM (active).
Take `Cc1cc(Cn2nc(-c3ccccc3)cc2C(=O)NCc2cccc(C(F)(F)F)c2)on1`: the IC50 in assay [3] was 3.4 µM (active); in assay [4], 31 µM (active); in assay [5] it was > 100 µM (inactive).
With `CCOC(=O)C1=C(C)N=c2s/c(=C\c3ccc(OCC(=O)O)cc3)c(=O)n2C1c1ccc(Cl)cc1` (stereo unspecified), the IC50 is 11.3 µM (active) in [6]; 33.7 µM (active) in assay [7]; > 20 µM (inactive) in [8]; > 50 µM (inactive) in [9]; 8.8 µM (active) in [10]; > 158 µM (not active) in assay [11].
As to `CCOc1cccc(-c2c(C(=O)N/N=C/c3c(F)cccc3Cl)nnn2-c2nonc2N)c1`, the AC50 on CAAX prenyl protease 2 was 9 µM (active); at CAAX prenyl protease 1 it was > 100 µM (inactive).
Usually EC50 stands for the midpoint of the concentration-response curve. As to `Cc1cc(C)c(NC(=O)CCc2ccccc2)c(C)c1`, the EC50 in assay [12] was 1.6 µM (active).
Take `COc1cc(Cl)c(C)cc1NC(=O)CSc1nnc(-c2ccccn2)n1Cc1ccco1`: the IC50 (in assay [13]; in assay [22]; at Mu-type opioid receptor [23]; in assay [25]) was > 32 µM (inactive) throughout. The EC50 on Mu-type opioid receptor [14] was > 32 µM (inactive); in [15], > 32 µM (inactive); in assay [16] it was 20.3 µM; in [17], 11.9 µM; in assay [18], 7.53 µM (active); in assay [19], > 10 µM (inactive). For the same molecule, the EC50 on Mu-type opioid receptor [20] was > 32 µM (inactive); in [21], > 32 µM (inactive); in [24], 16.3 µM (inactive).
`FC(F)(F)Oc1cccc(/N=c2\ssnc2Cl)c1`: the IC50 was 27.5 µM (active) in [26] and > 100 µM (inactive) on Phosphomannomutase 2.
